Where two headings read alike, the source gives them in different places.
Columns and labels:
PRAS40 [1] = target: T1, PRAS40 (Homo sapiens, UniProt Q96B36); test: ligand fishing from Erxian decoction with immobilized PRAS40, LC-MS identification; type: binding; conditions: PBS-Tween, pH 7.4, eluted from Ni-NTA beads, identified from extract by MS only
T1 construct: gene AKT1S1; His-tagged, purchased from Genscript (Nanjing); UniProt Q96B36 (human) given only for the docking receptor

PRAS40 [2] = target: T1, PRAS40; test: isothermal titration calorimetry; type: binding
Excerpt: isothermal titration calorimetry on PRAS40

[3] = read-out: Ka (M^-1) (converted)

**Q.** Which “ligand fishing from Erxian decoction with immobilized PRAS40, LC-MS identificati” value (“ligand fishing from Erxian decoction” below) (PRAS40 [1]) does the source give for O=[N+]([O-])c1ccc(O)cc1 [4-nitrophenol] here?
**A.** The immobilized PRAS40 isolated indole, 4-nitrophenol, terephthalic acid

**Q.** How did the Kd (PRAS40 [2]; [3]) turn out when c1ccc2[nH]ccc2c1 [indole] was run?
**A.** 2620 nM

**Q.** And the Kd (PRAS40 [2]; read-out: Kd)?
**A.** 2620 nM

**Q.** COc1cc2c(cc1OC)-c1cc3ccc(OC)c(OC)c3c[n+]1CC2 [palmatine] was tested. Which Kd (PRAS40 [2]; [3]) did it give?
**A.** 352 nM

**Q.** And the Kd (PRAS40 [2]; read-out: Kd)?
**A.** 353 nM

**Q.** Which “ligand fishing from Erxian decoction” value (PRAS40 [1]; named as PAINS by the paper) does the source give for COc1cc(/C=C/C=O)cc(OC)c1O [sinapinaldehyde] here?
**A.** palmatine, sinapinaldehyde, and 3-chloroaniline as the potential ligands binding to PRAS40

**Q.** For O=C(O)c1ccc(C(=O)O)cc1 [terephthalic acid], which “ligand fishing from Erxian decoction” value (PRAS40 [1]) is on record?
**A.** The immobilized PRAS40 isolated indole, 4-nitrophenol, terephthalic acid
